Data: ChEMBL document CHEMBL2311281, “Novel berberine triazoles: synthesis, antimicrobial evaluation and competitive interactions with metal ions to human serum albumin” (Bioorg Med Chem Lett, 2013)
Converted amounts (≈) assume the structure as drawn.

Assays:
Proteus vulgaris = assay: Antibacterial activity against Proteus vulgaris by two fold serial dilution method; assay type: functional
Pseudomonas aeruginosa = assay: Antibacterial activity against Pseudomonas aeruginosa by two fold serial dilution method; assay type: functional
Micrococcus luteus = assay: Antibacterial activity against Micrococcus luteus ATCC 4698 by two fold serial dilution method; assay type: functional
Shigella dysenteriae = assay: Antibacterial activity against Shigella dysenteriae by two fold serial dilution method; assay type: functional
Bacillus subtilis = assay: Antibacterial activity against Bacillus subtilis by two fold serial dilution method; assay type: functional
Escherichia coli = assay: Antibacterial activity against Escherichia coli DH52 by two fold serial dilution method; assay type: functional
Staphylococcus aureus [1] = assay: Antibacterial activity against Staphylococcus aureus ATCC 25923 by two fold serial dilution method; assay type: functional
Staphylococcus aureus [2] = assay: Antibacterial activity against methicillin-resistant Staphylococcus aureus N315 by two fold serial dilution method; assay type: functional
Staphylococcus aureus [3] = assay: Potency index, ratio of MIC for chloromycin to MIC compound against methicillin-resistant Staphylococcus aureus N315 by two fold serial dilution method; assay type: functional
Staphylococcus aureus [4] = assay: Potency index, ratio of MIC for berberine to MIC compound against methicillin-resistant Staphylococcus aureus N315 by two fold serial dilution method; assay type: functional
Albumin [5] = molecular target: T1, Albumin (Homo sapiens, UniProt P02768); assay: Ratio of binding affinity to HSA in presence of K+ ions to binding affinity to HSA in absence of metal ions; assay type: ADME; conditions: isolated protein
Albumin [6] = molecular target: T1, Albumin; assay: Ratio of binding affinity to HSA in presence of Ni2+ ions to binding affinity to HSA in absence of metal ions; assay type: ADME; conditions: isolated protein
Albumin [7] = molecular target: T1, Albumin; assay: Ratio of binding affinity to HSA in presence of Fe3+ ions to binding affinity to HSA in absence of metal ions; assay type: ADME; conditions: isolated protein
Albumin [8] = molecular target: T1, Albumin; assay: Ratio of binding affinity to HSA in presence of Ca2+ ions to binding affinity to HSA in absence of metal ions; assay type: ADME; conditions: isolated protein
Albumin [9] = molecular target: T1, Albumin; assay: Ratio of binding affinity to HSA in presence of Ce3+ ions to binding affinity to HSA in absence of metal ions; assay type: ADME; conditions: isolated protein
Albumin [10] = molecular target: T1, Albumin; assay: Ratio of binding affinity to HSA in presence of Pb2+ ions to binding affinity to HSA in absence of metal ions; assay type: ADME; conditions: isolated protein
Albumin [11] = molecular target: T1, Albumin; assay: Ratio of binding affinity to HSA in presence of La3+ ions to binding affinity to HSA in absence of metal ions; assay type: ADME; conditions: isolated protein
Albumin [12] = molecular target: T1, Albumin; assay: Ratio of binding affinity to HSA in presence of Mg2+ ions to binding affinity to HSA in absence of metal ions; assay type: ADME; conditions: isolated protein
Albumin [13] = molecular target: T1, Albumin; assay: Ratio of binding affinity to HSA in presence of Zn2+ ions to binding affinity to HSA in absence of metal ions; assay type: ADME; conditions: isolated protein
Albumin [14] = molecular target: T1, Albumin; assay: Ratio of binding affinity to HSA in presence of Cu2+ ions to binding affinity to HSA in absence of metal ions; assay type: ADME; conditions: isolated protein

T1 sequence (P02768 whole entry): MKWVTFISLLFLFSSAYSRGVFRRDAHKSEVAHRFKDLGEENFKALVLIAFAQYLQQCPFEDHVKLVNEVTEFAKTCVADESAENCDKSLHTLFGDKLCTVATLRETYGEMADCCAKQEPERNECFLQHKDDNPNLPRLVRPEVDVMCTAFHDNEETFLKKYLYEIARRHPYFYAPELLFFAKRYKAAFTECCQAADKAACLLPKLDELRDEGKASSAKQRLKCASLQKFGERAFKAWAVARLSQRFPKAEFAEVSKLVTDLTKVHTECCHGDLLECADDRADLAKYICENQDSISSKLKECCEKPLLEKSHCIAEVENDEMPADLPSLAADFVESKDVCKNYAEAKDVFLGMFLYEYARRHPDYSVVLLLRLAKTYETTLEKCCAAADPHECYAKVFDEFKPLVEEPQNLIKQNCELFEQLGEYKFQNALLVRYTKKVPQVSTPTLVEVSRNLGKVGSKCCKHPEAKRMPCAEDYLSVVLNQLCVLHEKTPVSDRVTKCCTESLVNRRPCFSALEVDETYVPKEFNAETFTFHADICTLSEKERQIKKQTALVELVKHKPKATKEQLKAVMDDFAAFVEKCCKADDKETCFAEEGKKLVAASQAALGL

SMILES	MIC (Proteus vulgaris) [µg/mL]	MIC (Pseudomonas aeruginosa) [µg/mL]	MIC (Micrococcus luteus) [µg/mL]	MIC (Shigella dysenteriae) [µg/mL]	MIC (Bacillus subtilis) [µg/mL]	MIC (Escherichia coli) [µg/mL]	MIC (Staphylococcus aureus [1]) [µg/mL]	MIC (Staphylococcus aureus [2]) [µg/mL]	Ratio (Staphylococcus aureus [3])	Ratio (Staphylococcus aureus [4])	Ratio (Albumin [5])	Ratio (Albumin [6])	Ratio (Albumin [7])	Ratio (Albumin [8])	Ratio (Albumin [9])	Ratio (Albumin [10])	Ratio (Albumin [11])	Ratio (Albumin [12])	Ratio (Albumin [13])	Ratio (Albumin [14])
COc1ccc2cc3[n+](cc2c1OCCN(CCn1cncn1)Cc1ccc(Cl)cc1)CCc1cc2c(cc1-3)OCO2.[Cl-]	32	16	16	8	8	16	16	16												
COc1ccc2cc3[n+](cc2c1OCCN(CCn1cncn1)Cc1cccc(Cl)c1)CCc1cc2c(cc1-3)OCO2.[Cl-]	32	32	32	32	16	8	8	32												
COc1ccc2cc3[n+](cc2c1OCCN(CCn1cncn1)Cc1ccccc1Cl)CCc1cc2c(cc1-3)OCO2.[Cl-]	16	32	32	32	8	8	8	16												
COc1ccc2cc3[n+](cc2c1OCCN(CCn1cncn1)Cc1ccc(Cl)c(Cl)c1)CCc1cc2c(cc1-3)OCO2.[Cl-]	8	16	16	16	8	8	8	16												
COc1ccc2cc3[n+](cc2c1OCCN(CCn1cncn1)Cc1ccc(Cl)cc1Cl)CCc1cc2c(cc1-3)OCO2.[Cl-]	8	16	16	8	8	4	8	8	2	16										
COc1ccc2cc3[n+](cc2c1OCCN(CCn1cncn1)Cc1cccc(F)c1)CCc1cc2c(cc1-3)OCO2.[Cl-]	4	8	16	4	8	8	8	8	2	16										
COc1ccc2cc3[n+](cc2c1OCCN(CCn1cncn1)Cc1ccccc1F)CCc1cc2c(cc1-3)OCO2.[Cl-]	4	8	8	4	8	4	4	8	2	16										
Clc1ccc(CN(CCBr)CCn2cncn2)cc1	512 (≈ 1490 µM)	256 (≈ 745 µM)	512 (≈ 1490 µM)	256 (≈ 745 µM)	256 (≈ 745 µM)	128 (≈ 372 µM)	128 (≈ 372 µM)	256 (≈ 745 µM)												
COc1ccc2cc3[n+](cc2c1OCCN(CCn1cncn1)Cc1ccc(F)cc1F)CCc1cc2c(cc1-3)OCO2.[Cl-]	2	8	8	4	8	4	4	8	2	16	0.943	0.839	1.116	0.956	0.998	0.963	0.883	1.064	0.871	0.972
Clc1cccc(CN(CCBr)CCn2cncn2)c1	> 512	256 (≈ 745 µM)	64 (≈ 186 µM)	256 (≈ 745 µM)	256 (≈ 745 µM)	128 (≈ 372 µM)	128 (≈ 372 µM)	256 (≈ 745 µM)												
Clc1ccc(CN(CCBr)CCn2cncn2)c(Cl)c1	128 (≈ 339 µM)	128 (≈ 339 µM)	32 (≈ 84.6 µM)	128 (≈ 339 µM)	256 (≈ 677 µM)	32 (≈ 84.6 µM)	64 (≈ 169 µM)	256 (≈ 677 µM)												
Clc1ccc(CN(CCBr)CCn2cncn2)cc1Cl	256 (≈ 677 µM)	128 (≈ 339 µM)	32 (≈ 84.6 µM)	128 (≈ 339 µM)	256 (≈ 677 µM)	32 (≈ 84.6 µM)	64 (≈ 169 µM)	256 (≈ 677 µM)												
Clc1ccccc1CN(CCBr)CCn1cncn1	512 (≈ 1490 µM)	128 (≈ 372 µM)	64 (≈ 186 µM)	256 (≈ 745 µM)	256 (≈ 745 µM)	64 (≈ 186 µM)	128 (≈ 372 µM)	256 (≈ 745 µM)												
Fc1cccc(CN(CCBr)CCn2cncn2)c1	256 (≈ 782 µM)	128 (≈ 391 µM)	64 (≈ 196 µM)	64 (≈ 196 µM)	256 (≈ 782 µM)	64 (≈ 196 µM)	64 (≈ 196 µM)	128 (≈ 391 µM)												
Fc1ccc(CN(CCBr)CCn2cncn2)c(F)c1	128 (≈ 371 µM)	128 (≈ 371 µM)	32 (≈ 92.7 µM)	64 (≈ 185 µM)	256 (≈ 742 µM)	32 (≈ 92.7 µM)	64 (≈ 185 µM)	128 (≈ 371 µM)												
Fc1ccccc1CN(CCBr)CCn1cncn1	256 (≈ 782 µM)	128 (≈ 391 µM)	64 (≈ 196 µM)	64 (≈ 196 µM)	256 (≈ 782 µM)	32 (≈ 97.8 µM)	64 (≈ 196 µM)	128 (≈ 391 µM)												
COc1ccc2cc3[n+](cc2c1OC)CCc1cc2c(cc1-3)OCO2 [BERBERINE]	128	256	> 512	256	> 512	> 512	512	128												
O=C(N[C@H](CO)[C@H](O)c1ccc([N+](=O)[O-])cc1)C(Cl)Cl [CHLORAMPHENICOL]	32 (≈ 99 µM)	32 (≈ 99 µM)	8 (≈ 24.8 µM)	32 (≈ 99 µM)	32 (≈ 99 µM)	32 (≈ 99 µM)	16 (≈ 49.5 µM)	16 (≈ 49.5 µM)												
CCn1cc(C(=O)O)c(=O)c2cc(F)c(N3CCNCC3)cc21 [NORFLOXACIN]	8 (≈ 25.1 µM)	16 (≈ 50.1 µM)	2 (≈ 6.26 µM)	4 (≈ 12.5 µM)	1 (≈ 3.13 µM)	16 (≈ 50.1 µM)	0.5 (≈ 1.57 µM)	8 (≈ 25.1 µM)												
